This is an account of results in patent US9561190B2, “Nonwoven membrane as a drug delivery system” (priority 2012, dated 2017).

Assay type in all cases: cell-based
One assay concerns SK-N-AS. Briefly: MTS cell viability assay, soluble SN-38 on SK-N-AS neuroblastoma cells. Conditions: 4 hours exposure, viability 4 days later. On the procedure:
(§1) To determine whether the antitumor activity of the drug was conserved after the manufacturing process of the membranes, the present inventors co-incubated the membranes with neuroblastoma cell lines. In a previous experiment, the present inventors determined the extent to which SN-38 inhibits neuroblastoma. Such experiment was performed by exposing LAN-1, SK-N-BE(2)c and SK-N-AS cell lines to a fresh solution of SN-38 in RPMI, prepared from a stock solution of SN-38, 1 mg/mL in DMSO. Briefly, cells were plated in 96 well plates, 3000 cells per well, in RPMI medium. 24 hours later, the cells were exposed to SN-38 (concentration range 10-0.000001 μM). After 4 hours, the drug was withdrawn and fresh medium was added. The viability of the cell culture was quantified 4 days later, by using the MTS cell viability assay (Promega).
(§2) Each dot represents the mean (±SD) of 3-5 wells.
On the technique in general: Tetrazolium assays rely on reduction of a dye to a coloured formazan, in cell work by metabolically active cells.

In the next assay the test system is SK-N-BE(2)c. Briefly: MTS cell viability assay, soluble SN-38 on SK-N-BE(2)c neuroblastoma cells. Conditions: SK-N-BE(2)c cells, 4 hours exposure, viability 4 days later. On the procedure: as §1, §2
Another assay deals with LAN-1. Kind of assay: MTS cell viability assay, soluble SN-38 on LAN-1 neuroblastoma cells. Conditions: LAN-1 cells, 4 hours exposure, viability 4 days later. Here is the method:
as §1, §2

Molecules are shown by their SMILES.

By IC50 is commonly meant the point on the concentration scale where inhibition reaches its midpoint. The low end stands for greater potency, the high end for weaker potency.

In the case of `CCc1c2c(nc3ccc(O)cc13)-c1cc3c(c(=O)n1C2)COC(=O)[C@]3(O)CC` [SN-38, 7-ethyl-10-hydroxycamptothecin], the IC50 was 0.19 µM in the assay with SK-N-AS, 0.046 µM in the assay on SK-N-BE(2)c and 0.01 µM in the assay on LAN-1.
